Key:
[1] = biological target: Thermolysin (Bacillus thermoproteolyticus) (UniProt P00800); assay: Inhibition of Bacillus thermoproteolyticus thermolysin pretreated with compound for 15 mins followed by the addition of Abz-Ala-Gly-leu-Ala-p-nitrobenzalamide as substrate by spectrofluorometry
Elastase = Elastase (Pseudomonas aeruginosa (strain ATCC 15692 / PAO1 / 1C / PRS 101 / LMG12228), UniProt P14756); assay: Inhibition of Pseudomonas aeruginosa pseudolysin pretreated with compound for 1 hr followed by the addition of 1.73 uM bradykinin like substrate by spectrofluorometry
[2] = biological target: Disintegrin and metalloproteinase domain-containing protein 17 (Homo sapiens, UniProt P78536); assay: Inhibition of recombinant human ADAM17 after 30 mins using FS-6 as substrate by fluorometry
Thermolysin [3] = biological target: T1, Thermolysin (Bacillus thermoproteolyticus, UniProt P00800); assay: Inhibition of Bacillus thermoproteolyticus thermolysin pretreated with compound for 1 hr followed by the addition of 3.33 uM bradykinin like substrate by spectrofluorometry assay
T1 sequence (P00800 whole entry): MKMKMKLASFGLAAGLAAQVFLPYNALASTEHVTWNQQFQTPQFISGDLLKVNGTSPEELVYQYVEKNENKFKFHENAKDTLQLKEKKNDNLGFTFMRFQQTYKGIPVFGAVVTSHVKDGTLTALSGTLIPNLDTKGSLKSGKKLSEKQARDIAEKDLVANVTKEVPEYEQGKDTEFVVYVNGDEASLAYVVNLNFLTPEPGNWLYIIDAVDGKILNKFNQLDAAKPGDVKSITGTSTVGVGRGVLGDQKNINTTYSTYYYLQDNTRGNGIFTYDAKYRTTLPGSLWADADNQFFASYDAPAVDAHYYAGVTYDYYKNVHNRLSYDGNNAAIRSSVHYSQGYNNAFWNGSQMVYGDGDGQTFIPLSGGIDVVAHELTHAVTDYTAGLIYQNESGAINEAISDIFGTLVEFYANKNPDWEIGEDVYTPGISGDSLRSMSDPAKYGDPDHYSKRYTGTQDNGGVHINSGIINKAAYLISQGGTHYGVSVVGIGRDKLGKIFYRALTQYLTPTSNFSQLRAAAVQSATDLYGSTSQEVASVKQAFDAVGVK

[4] = biological target: 72 kDa type IV collagenase (Homo sapiens, UniProt P08253); assay: Inhibition of recombinant human MMP2 after 2 hrs using FS-6 as substrate by fluorometry
[5] = biological target: Matrix metalloproteinase-9 (Homo sapiens, UniProt P14780); assay: Inhibition of recombinant human MMP9 after 2 hrs using FS-6 as substrate by fluorometry
Thermolysin [6] = biological target: T1, Thermolysin; assay: Inhibition of Bacillus thermoproteolyticus thermolysin pretreated with compound for 15 mins followed by the addition of 75 uM Abz-Ala-Gly-leu-Ala-p-nitrobenzalamide as substrate by spectrofluorometry

Sequence of Disintegrin and metalloproteinase domain-containing protein 17 (P78536 whole entry, the tested form may be a part): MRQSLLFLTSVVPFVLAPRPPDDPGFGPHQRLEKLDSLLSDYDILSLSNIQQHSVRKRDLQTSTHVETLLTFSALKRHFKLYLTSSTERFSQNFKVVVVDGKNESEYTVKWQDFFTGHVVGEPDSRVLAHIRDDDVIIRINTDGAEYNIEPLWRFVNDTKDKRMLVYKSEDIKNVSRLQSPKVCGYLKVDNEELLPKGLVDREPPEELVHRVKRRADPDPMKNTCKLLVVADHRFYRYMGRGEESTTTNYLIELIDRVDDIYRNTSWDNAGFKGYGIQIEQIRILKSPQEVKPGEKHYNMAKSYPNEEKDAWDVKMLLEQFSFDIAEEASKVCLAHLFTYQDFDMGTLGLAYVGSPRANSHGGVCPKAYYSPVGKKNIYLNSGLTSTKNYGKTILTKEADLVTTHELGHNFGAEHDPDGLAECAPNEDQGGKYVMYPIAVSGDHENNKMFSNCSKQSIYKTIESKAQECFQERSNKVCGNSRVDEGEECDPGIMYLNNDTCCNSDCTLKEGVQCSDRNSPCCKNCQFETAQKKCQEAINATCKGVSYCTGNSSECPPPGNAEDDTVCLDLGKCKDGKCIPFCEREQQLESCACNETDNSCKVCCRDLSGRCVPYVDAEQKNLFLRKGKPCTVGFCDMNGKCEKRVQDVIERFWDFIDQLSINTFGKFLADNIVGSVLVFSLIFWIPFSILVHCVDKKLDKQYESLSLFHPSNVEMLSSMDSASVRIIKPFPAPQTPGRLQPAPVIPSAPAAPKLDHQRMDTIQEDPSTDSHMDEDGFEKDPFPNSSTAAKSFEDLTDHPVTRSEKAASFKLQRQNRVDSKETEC
Sequence of Matrix metalloproteinase-9 (P14780 whole entry): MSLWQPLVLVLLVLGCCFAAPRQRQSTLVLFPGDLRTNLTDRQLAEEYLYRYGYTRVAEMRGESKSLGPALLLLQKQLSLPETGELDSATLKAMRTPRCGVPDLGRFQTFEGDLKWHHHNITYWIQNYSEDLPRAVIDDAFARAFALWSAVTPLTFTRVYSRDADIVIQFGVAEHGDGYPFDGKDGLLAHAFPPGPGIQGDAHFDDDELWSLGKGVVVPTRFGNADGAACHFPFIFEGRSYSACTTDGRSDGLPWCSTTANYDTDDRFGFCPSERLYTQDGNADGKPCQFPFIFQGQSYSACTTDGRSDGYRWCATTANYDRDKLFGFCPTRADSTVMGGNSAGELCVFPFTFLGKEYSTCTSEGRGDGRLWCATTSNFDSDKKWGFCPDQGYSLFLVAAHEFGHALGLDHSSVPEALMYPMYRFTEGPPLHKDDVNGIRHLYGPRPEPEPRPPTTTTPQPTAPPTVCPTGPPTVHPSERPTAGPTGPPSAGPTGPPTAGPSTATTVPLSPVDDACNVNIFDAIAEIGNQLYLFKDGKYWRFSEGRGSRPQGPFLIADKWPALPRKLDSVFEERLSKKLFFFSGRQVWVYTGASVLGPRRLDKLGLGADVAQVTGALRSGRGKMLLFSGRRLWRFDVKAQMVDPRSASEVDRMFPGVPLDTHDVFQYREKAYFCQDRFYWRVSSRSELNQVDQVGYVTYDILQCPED
Sequence of 72 kDa type IV collagenase (P08253 whole entry): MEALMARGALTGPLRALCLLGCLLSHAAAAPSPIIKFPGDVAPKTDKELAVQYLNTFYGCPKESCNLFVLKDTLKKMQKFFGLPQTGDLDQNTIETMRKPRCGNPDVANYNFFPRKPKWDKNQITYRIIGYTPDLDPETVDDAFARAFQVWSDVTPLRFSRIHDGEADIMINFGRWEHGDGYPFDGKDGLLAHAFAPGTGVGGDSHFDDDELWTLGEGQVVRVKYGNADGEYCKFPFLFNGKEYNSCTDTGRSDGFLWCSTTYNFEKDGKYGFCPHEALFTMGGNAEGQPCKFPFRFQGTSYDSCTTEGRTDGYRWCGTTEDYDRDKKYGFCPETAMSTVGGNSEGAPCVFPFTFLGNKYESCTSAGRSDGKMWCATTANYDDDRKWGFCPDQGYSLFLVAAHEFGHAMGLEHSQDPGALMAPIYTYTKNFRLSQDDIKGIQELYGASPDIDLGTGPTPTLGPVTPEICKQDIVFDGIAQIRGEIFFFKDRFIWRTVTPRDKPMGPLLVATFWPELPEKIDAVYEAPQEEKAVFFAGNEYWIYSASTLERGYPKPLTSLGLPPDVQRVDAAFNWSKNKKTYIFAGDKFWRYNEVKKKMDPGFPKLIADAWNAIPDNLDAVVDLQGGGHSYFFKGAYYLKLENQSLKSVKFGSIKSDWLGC
Sequence of Elastase (P14756 whole entry, the tested form may be a part): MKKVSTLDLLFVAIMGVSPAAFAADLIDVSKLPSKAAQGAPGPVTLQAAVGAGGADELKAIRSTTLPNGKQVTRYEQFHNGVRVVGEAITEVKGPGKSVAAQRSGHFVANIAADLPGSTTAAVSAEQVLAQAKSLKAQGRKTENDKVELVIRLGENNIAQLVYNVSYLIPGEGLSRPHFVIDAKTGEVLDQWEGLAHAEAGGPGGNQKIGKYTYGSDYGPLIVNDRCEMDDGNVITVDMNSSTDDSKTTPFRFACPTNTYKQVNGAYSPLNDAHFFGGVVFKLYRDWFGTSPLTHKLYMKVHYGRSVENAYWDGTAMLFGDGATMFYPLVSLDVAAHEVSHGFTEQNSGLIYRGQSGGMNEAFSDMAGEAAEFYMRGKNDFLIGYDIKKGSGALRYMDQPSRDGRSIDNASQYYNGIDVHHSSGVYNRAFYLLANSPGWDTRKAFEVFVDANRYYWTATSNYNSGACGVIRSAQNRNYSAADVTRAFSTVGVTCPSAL

SMILES	IC50 [1] [µM]	IC50 (Elastase) [µM]	IC50 [2] [µM]	IC50 (Thermolysin [3]) [µM]	IC50 [4] [µM]	IC50 [5] [µM]	IC50 (Thermolysin [6]) [µM]
COc1ccc(S(=O)(=O)c2ccccc2CC(=O)NO)cc1	17	29	67	146	–	–	–
O=C(Cc1ccccc1S(=O)(=O)c1ccc(OCCCN2C(=O)c3ccccc3C2=O)cc1)NO	7	38	150	132	> 10	> 10	–
O=C(CCNS(=O)(=O)c1ccc(-c2ccccc2)cc1)NO	30	79	–	30	2.4	26	30
CCCCC(NOCc1ccccc1)C(=O)NO (configuration not stated)	1.1	1.9	100	9.5	–	–	–
CC(C)CN([C@@H](C(=O)NO)C(C)C)S(=O)(=O)c1ccc(-c2ccccc2)cc1	–	–	–	–	0.003	0.0053	–
CC(C)ON(CC(=O)NO)S(=O)(=O)c1ccc(Br)s1	3.3	31	114	29	1.1	6.2	29
CC(C)ON([C@@H](C(=O)NO)C(C)C)S(=O)(=O)c1ccc(-c2ccccc2)cc1	–	–	14	–	–	–	–
O=C(N[C@H](CCN1C(=O)c2ccccc2C1=O)C(=O)NO)c1ccc(Oc2ccccc2)cc1	16	–	9.5	–	9	8.2	–
COc1ccc(S(=O)(=O)N(CC(=O)NO)OC23CC4CC(CC(C4)C2)C3)cc1	–	–	–	–	2	2	–
COc1ccc(S(=O)(=O)N(CC(C)C)[C@@H](C(=O)NO)C(C)C)cc1	103	–	–	–	–	–	–
